Legend:
Cannabinoid CB1 = target: T1, Cannabinoid CB1 (Homo sapiens, UniProt P21554); assay: Radioligand displacement (Ricerca); assay type: binding
T1 construct: Ricerca

Sigma σl = target: T2, Sigma σl (Homo sapiens, UniProt Q99720); assay: Radioligand displacement (Ricerca); assay type: binding
T2 construct: Ricerca (contract panel)

Transporter, NET = target: T3, Transporter, NET (Homo sapiens, UniProt P23975); assay: Radioligand displacement (Ricerca); assay type: binding
T3 construct: Ricerca (contract panel)

PAF = target: T4, PAF (Homo sapiens, UniProt P25105); assay: Radioligand displacement (Ricerca); assay type: binding
T4 construct: Ricerca (contract laboratory that ran the panel)

[1] = Ascending dose study in mice; assay type: in vivo, mouse; details: mice, 10, 30, 60 mg/kg intraperitoneal
Procedure: To begin to assess […] pharmacodynamics properties, an ascending dose study (10, 30, 60 mg/kg, intraperitoneal injection) was performed in mice.

GIRK1/2 = target: T5, GIRK1/2 (Homo sapiens, UniProt P48051+P48549); assay: Thallium flux assay, HEK-293 cells expressing GIRK1/2; assay type: cell-based; set-up: host or cells: HEK-293; details: cell line GIRK1-2; average ± SEM; read-out: EC50 Thallium Flux
T5 sequence (P48549 1-501): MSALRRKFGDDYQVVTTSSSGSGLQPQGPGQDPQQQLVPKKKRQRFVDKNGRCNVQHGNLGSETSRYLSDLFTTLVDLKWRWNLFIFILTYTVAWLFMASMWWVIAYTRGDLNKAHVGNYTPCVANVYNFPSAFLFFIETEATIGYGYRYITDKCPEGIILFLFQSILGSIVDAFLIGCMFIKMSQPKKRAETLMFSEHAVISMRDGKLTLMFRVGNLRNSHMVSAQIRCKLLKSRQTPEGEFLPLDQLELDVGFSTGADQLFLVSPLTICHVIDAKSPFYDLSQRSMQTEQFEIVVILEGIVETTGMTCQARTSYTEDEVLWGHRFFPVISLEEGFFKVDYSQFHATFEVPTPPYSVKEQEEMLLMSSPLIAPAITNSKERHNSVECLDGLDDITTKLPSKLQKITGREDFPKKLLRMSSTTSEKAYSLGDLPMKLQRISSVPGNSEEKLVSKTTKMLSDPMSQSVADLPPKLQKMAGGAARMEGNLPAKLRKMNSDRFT
T5 sequence (P48051 1-423): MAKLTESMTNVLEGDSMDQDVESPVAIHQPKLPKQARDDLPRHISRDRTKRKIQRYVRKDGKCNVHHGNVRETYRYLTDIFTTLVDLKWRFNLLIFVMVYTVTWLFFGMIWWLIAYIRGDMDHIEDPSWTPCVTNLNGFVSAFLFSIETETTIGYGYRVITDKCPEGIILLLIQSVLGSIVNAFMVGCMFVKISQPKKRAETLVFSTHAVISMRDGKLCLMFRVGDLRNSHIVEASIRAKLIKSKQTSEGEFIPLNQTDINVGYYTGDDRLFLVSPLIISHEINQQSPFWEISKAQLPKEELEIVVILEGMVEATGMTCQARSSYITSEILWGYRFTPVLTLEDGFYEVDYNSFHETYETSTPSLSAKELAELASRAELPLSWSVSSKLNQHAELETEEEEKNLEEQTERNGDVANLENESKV
Description: Cell Line Construction and Cell Culture. HEK-293 cells co-expressing human GIRK1/2 and rat mGlu8 were generated as previously described (Niswender et al., 2008). A HEK-293 cell line (ATCC, Manassas, Va.) expressing human GIRK1 and human GIRK2 was constructed by transfecting HEK-293 cells with GIRK1 and GIRK2 (Origene, Rockville, Md.) cloned into the pBudCE4.1 vector (Life Technologies, Carlsbad, Calif.) using FuGene 6 (Promega, Madison, Wis.) transfection reagent. Unless otherwise noted, other ion channel-expressing cells were prepared by transfecting HEK-293 cells with individual or combinations of subunits: GIRK1, pCMV6-A-BSD; GIRK2, pCMV6-A-puro; GIRK3, pCMV6-A-hygro; GIRK4, pCMV6-A-AC; Kv7.4, pIRESneo3. The Kir2.1 and hERG-expressing cell lines were made by transfecting T-REx-293 cells (Life Technologies, Carlsbad, Calif.) with Kir2.1 and Kv11.1, respectively, cloned into pcDNA5TO. Monoclonal cell lines were produced by limiting-dilution cloning of antibiotic-resistant cells and functional selection using the thallium flux assay described below. Unless otherwise noted, cells were maintained in Minimal Essential Medium, Alpha Medium (Mediatech, Manassas, Va.) supplemented with 10% fetal bovine serum (Sigma-Aldrich, Saint Louis, Mo.) and GlutaGro (Mediatech, Manassas, Va.), referred to henceforth as cell culture medium. […]

Neuropeptide Y (Y1 ) = target: T6, Neuropeptide Y (Y1 ) (Homo sapiens, UniProt P25929); assay: Radioligand displacement (Ricerca); assay type: binding
T6 construct: Ricerca (contract laboratory that ran the panel)
T6 sequence (P25929 whole entry): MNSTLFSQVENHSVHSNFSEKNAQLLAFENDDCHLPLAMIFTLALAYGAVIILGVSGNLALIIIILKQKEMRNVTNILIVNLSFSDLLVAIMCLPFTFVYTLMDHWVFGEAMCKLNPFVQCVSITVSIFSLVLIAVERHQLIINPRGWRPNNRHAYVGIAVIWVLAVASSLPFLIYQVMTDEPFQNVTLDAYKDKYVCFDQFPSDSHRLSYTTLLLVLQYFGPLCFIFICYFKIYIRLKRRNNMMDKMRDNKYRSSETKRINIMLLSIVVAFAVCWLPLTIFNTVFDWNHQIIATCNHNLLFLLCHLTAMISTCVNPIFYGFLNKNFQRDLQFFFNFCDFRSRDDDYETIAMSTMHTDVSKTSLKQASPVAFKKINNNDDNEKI

T2 sequence (Q99720 whole entry): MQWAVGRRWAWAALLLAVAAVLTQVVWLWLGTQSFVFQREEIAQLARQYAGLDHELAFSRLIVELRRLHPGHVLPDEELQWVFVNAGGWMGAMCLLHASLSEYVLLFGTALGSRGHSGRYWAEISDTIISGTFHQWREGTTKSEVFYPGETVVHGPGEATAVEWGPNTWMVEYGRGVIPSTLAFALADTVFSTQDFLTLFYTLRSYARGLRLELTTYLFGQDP
T3 sequence (P23975 whole entry): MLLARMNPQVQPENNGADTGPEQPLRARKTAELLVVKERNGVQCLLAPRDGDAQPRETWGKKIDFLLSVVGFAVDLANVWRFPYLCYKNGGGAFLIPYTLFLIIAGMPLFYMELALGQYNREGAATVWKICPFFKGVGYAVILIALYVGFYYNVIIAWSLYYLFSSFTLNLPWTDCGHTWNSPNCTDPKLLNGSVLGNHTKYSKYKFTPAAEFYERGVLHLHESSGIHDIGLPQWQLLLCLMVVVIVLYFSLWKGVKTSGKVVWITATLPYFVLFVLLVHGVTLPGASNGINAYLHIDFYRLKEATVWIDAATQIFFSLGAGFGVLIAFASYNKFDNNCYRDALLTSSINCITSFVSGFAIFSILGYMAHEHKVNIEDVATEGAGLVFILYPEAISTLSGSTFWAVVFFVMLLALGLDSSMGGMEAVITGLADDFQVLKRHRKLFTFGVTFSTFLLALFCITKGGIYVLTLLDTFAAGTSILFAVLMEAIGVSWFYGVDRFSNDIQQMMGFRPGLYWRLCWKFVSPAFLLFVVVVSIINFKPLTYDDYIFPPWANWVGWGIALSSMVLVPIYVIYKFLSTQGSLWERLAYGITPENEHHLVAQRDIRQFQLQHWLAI
T4 sequence (P25105 whole entry): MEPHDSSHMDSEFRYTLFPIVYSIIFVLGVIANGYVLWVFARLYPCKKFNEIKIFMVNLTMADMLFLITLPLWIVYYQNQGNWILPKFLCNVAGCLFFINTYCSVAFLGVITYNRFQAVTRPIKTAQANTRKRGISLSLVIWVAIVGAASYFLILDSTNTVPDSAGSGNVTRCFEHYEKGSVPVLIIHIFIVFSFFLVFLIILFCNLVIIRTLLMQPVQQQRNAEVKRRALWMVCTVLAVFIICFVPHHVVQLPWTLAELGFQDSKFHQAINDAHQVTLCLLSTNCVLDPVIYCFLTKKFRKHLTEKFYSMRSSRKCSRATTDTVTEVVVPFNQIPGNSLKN
T1 sequence (P21554 whole entry): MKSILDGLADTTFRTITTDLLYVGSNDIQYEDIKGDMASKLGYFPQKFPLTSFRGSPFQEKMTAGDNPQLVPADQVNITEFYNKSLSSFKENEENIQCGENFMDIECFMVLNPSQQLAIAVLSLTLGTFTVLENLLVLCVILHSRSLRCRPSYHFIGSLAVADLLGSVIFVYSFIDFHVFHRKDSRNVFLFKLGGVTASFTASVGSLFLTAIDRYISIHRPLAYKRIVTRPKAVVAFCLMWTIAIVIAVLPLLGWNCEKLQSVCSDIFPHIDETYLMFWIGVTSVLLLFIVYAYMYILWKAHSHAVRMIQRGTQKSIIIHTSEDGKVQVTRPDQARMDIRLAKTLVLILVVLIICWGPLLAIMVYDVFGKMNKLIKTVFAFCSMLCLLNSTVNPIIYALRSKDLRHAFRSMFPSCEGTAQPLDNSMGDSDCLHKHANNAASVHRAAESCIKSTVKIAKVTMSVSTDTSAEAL

What does the source list for `Cc1cc(NC(=O)Nc2ccc(F)c(F)c2)n(-c2ccccc2)n1` [VU0456810, 1-(3,4-difluorophenyl)-3-(3-methyl-1-phenyl-1H-pyrazol-5-yl)urea]?
inhibition at 10 µM (Cannabinoid CB1): 8%; inhibition at 10 µM (Sigma σl): < 50%; % Inhibition (Sigma σl; 10 μM): 49%; inhibition at 10 µM (Transporter, NET): 15%; inhibition at 10 µM (PAF): 2%; appearance of animals [1]: appeared normal and not under obvious distress; EC50 (GIRK1/2): 162 ± 89 nM; inhibition at 10 µM (Neuropeptide Y (Y1 )): 24%

— US9067894B1, “Compound, composition, and method of activating GIRK potassium channel and use of same for treating conditions of interest” (Vanderbilt University, priority 2013, dated 2015)
